From patent publication US8415469B2, “Compounds and methods for kinase modulation, and indications therefor” (Plexxikon Inc., priority 2005, dated 2013) come the findings set out here.

Structures are written as SMILES. Where only a bound is given, the exact number is not on record here.

As usually defined, the IC50 is the concentration at which inhibition is half-maximal.

Common to all, as to format: biochemical
Assay [1] concerns the target MAP4K4 (Homo sapiens, UniProt O95819). Put plainly: AlphaScreen kinase assay, MAP4K4. As to conditions: read-out: IC50, activity toward kinase MAP4K4. For orientation: In Alpha technology, singlet oxygen from a donor bead excites a nearby acceptor bead.
The target in assay [2] is T1, FGFR1 (Homo sapiens, UniProt P11362, C488A/C584S).
T1 construct: P1351.pET N6 BI-PTP FGFR A458-E765-X C488A, C584S; made in house; host or cells: E. coli (PTP1B co-expressed)
T1 sequence (P11362 458-765 C488A/C584S): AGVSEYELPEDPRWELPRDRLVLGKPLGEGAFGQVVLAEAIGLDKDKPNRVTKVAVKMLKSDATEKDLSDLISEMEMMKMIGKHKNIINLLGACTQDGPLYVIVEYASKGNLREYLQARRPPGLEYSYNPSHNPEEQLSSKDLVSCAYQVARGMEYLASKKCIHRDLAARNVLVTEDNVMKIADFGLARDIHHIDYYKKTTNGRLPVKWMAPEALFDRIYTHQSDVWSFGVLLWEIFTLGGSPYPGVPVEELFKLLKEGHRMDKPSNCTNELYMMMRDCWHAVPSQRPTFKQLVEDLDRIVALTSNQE
As to the kind of experiment: AlphaScreen kinase assay, FGFR1. As to conditions: read-out: IC50, activity toward kinase FGFR.

For assay [3], the target named is T2, B-Raf (Homo sapiens, UniProt P15056).
T2 construct: purchased Upstate Biotechnology
T2 sequence (P15056 whole entry): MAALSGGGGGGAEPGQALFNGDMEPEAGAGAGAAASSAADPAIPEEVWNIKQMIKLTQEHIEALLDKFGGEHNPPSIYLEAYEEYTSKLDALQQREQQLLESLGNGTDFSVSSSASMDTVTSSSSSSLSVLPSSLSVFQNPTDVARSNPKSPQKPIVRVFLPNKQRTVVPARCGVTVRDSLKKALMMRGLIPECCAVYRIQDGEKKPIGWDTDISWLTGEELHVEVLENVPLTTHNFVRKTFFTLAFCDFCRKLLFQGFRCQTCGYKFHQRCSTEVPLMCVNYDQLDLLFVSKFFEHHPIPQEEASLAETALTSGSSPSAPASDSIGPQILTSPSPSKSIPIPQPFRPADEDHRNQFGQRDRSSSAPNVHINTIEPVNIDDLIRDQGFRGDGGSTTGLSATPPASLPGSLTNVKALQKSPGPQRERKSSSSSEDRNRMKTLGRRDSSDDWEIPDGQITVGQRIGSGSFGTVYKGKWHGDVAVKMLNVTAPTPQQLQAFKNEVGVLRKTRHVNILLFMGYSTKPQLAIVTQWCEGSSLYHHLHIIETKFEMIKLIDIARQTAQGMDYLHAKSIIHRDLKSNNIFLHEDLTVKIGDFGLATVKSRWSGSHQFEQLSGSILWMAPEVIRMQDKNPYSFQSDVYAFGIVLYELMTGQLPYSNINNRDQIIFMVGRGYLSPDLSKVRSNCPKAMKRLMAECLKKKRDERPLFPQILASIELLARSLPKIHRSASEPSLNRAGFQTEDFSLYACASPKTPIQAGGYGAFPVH
As to the kind of experiment: AlphaScreen kinase assay, B-Raf. As to conditions: read-out: IC50, activity toward kinase B-Raf.

The target in assay [4] is T3, Fak (Homo sapiens, UniProt Q05397).
T3 construct: P1358.pFastBacHtb FAK S411-Q686-X; His6 with pFastBacHTb leader (TEV site) (N); made in house; host or cells: Sf9 (baculovirus)
T3 sequence (Q05397 411-686): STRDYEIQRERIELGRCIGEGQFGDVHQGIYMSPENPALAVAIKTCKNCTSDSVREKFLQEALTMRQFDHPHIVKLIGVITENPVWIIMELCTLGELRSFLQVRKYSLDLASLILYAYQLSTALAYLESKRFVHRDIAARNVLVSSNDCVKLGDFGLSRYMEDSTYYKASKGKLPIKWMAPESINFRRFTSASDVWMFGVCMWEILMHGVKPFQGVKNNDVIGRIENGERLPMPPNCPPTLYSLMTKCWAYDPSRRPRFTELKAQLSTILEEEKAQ
Put plainly: AlphaScreen kinase assay, Fak. Particulars: read-out: IC50, activity toward kinase Fak.

In assay [5] the target is T4, Zap70 (Homo sapiens, UniProt P43403).
T4 construct: P1868.pFastBac1 ZAP70 D327-G606 HIS, WT; His7 (HHHHHHH) (C); made in house
T4 sequence (P43403 with tags, fused parts or gaps): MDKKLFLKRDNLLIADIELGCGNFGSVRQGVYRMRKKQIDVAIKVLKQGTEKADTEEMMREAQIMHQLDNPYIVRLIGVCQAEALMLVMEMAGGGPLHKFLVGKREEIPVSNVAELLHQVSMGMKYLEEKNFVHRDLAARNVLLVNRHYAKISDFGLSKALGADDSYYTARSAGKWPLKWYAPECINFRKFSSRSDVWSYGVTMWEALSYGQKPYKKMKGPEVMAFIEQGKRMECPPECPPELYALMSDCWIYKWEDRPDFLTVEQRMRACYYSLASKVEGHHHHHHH
As to the kind of experiment: AlphaScreen kinase assay, Zap70. As to conditions: read-out: IC50, activity toward kinase Zap70. An excerpt:
AlphaScreen assay was used to screen additional kinases. The assay is similarly dependent on the phosphorylation of a peptide substrate. In this assay, an antibody that recognizes phosphorylated substrate is bound to an acceptor bead. The peptide substrate is attached to biotin, which binds to a donor head that contains streptavidin. Thus phosphorylated substrate is bound by antibody and streptavidin, bringing the donor and acceptor heads into close proximity when kinase is not inhibited. The donor produces singlet oxygen which results in emission from the acceptor when they are in close proximity. Conversely, when kinase is inhibited, the donor and acceptor beads are not associated and the emission from the acceptor is reduced.
AlphaScreen assays were done using compounds dissolved in DMSO to a concentration of 20 mM. The compounds were diluted accordingly to the desired final concentrations in each sample well, using 1:3 serial dilution for a total of 8 concentration points.

Assay [6] has as its target T5, Yes (Homo sapiens, UniProt P07947).
T5 construct: purchased Invitrogen (Carlsbad, Calif.), screening service
As to the kind of experiment: Z'-Lyte FRET kinase assay (Invitrogen), Yes. Particulars: read-out: IC50, activity toward kinase Yes. From the text: The effect of potential modulators of kinase activity can be measured in a variety of different assays known in the art. For example, direct radiometric, indirect FRET or AlphaScreen assays may be used to assess the level of phosphorylation of a substrate in the presence of test compounds in order to determine the inhibitory affect of the compound on the kinase. Invitrogen (Carlsbad, Calif.) uses a FRET based assay for Btk, EGFR, EphB2, Flt3, lrak4, Kdr, MAP2K1, MAPKAPK2, PDGFRB, PKC theta, Stk6 and Yes. For these assays, compounds of the invention were screened by Invitrogen using Z′-Lyte™ kinase assay.
Briefly, the Invitrogen kinase assay involves use of a specific peptide substrate optimized for each kinase, containing a fluorophore at each end that make up the FRET pair. The peptide sensitivity to proteolytic cleavage depends on phosphorylation of the peptide. Non-phosphorylated peptide is cleaved by a protease while peptide phosphorylated by the kinase is not cleaved. Cleavage of the peptide disrupts the FRET between the donor (coumarin) and acceptor (fluorescein) fluorophores, resulting in an increase in the ratio of donor emission to acceptor emission. The emission ratio of coumarin to fluorescein is used to assess the reaction progress. The extent of phosphorylation is determined from the emission ratio, which is low when the kinase is active (phosphorylated peptide is not cleaved, FRET pair connected) or higher for inhibited kinase (non-phosphorylated peptide is cleaved, FRET pair separated). Thus, the assay involves a kinase reaction in the presence of varying concentrations of a given compound, a development reaction with site specific protease, and detection of the fluorescent emission ratio of coumarin and fluorscein. […] Reaction conditions for each kinase are determined to provide optimal reaction times, incubation temperature, kinase and ATP concentrations. Test samples are made up in 1× kinase buffer (50 mM HEPES pH 7.5, 50 mM MgCl2, 5 mM EGTA, 0.05% BRIJ-35) and compound at desired concentration prepared in DMSO such that the final DMSO is 1%. […] Typically, assay plates are prepared to 10 μl final volume per sample, adding 2.5 μl of compound at 4× the desired concentration in 4% DMSO (serial dilution of compound provides concentration curve), 5 μl of the desired kinase mixed with Z′-LYTE™ peptide substrate (2× in 2× kinase buffer, final peptide at 2 μM), and 2.5 μl of 4×ATP solution. All kinase except for MAP2K1 were at 10 μM ATP in the kinase reaction, while MAP2K1 was at 100 μM. Samples are mixed and the kinase reaction is incubated 1 hour at room temperature, after which 5 μl of development solution is added and mixed. After incubation for another 1 hour at room temperature, 5 μl of stop reagent is added to each sample and mixed. The fluorescence signals are measured to determine the emission ratio.

The target of assay [7] is T6, Kit (Homo sapiens, UniProt P10721).
T6 construct: P1332.N6 BI PTP KIT M552-K948-X COD; His6 (N); made in house; host or cells: E. coli (PTP1B co-expressed)
T6 sequence (P10721 with tags, fused parts or gaps): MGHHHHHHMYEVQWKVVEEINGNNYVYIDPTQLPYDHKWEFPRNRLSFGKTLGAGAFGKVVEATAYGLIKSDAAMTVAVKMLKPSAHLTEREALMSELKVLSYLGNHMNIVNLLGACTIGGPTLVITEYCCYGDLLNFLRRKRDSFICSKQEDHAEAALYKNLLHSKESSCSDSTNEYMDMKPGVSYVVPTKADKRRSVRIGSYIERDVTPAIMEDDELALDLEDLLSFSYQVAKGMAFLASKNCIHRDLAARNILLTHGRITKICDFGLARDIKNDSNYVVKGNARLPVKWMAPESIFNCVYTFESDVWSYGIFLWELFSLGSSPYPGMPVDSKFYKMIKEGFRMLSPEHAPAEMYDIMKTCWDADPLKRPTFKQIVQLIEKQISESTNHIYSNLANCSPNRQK
As to the kind of experiment: AlphaScreen kinase assay, Kit. Particulars: read-out: IC50, activity toward kinase Kit.

Assay [8] addresses T7, Ret (Homo sapiens, UniProt P07949).
T7 construct: P1378.pET-SF BI-PTP RET H661-R1012 HIS; made in house
T7 sequence (P07949 with tags, fused parts or gaps): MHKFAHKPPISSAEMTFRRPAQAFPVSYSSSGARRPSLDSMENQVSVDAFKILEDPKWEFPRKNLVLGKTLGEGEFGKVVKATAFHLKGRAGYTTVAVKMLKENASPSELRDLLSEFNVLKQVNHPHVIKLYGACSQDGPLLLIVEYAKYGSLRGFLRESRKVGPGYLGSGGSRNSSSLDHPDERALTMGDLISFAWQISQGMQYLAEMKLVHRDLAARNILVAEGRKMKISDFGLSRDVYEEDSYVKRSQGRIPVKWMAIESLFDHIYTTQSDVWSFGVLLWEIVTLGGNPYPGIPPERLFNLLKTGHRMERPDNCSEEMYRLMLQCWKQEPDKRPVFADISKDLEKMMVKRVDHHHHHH
Put plainly: AlphaScreen kinase assay, Ret. Particulars: read-out: IC50, activity toward kinase Ret.

Assay [9] deals with T8, Flt1 (Homo sapiens, UniProt P17948).
T8 construct: P1826.pETN6 BI-PTP FLT1 M799-D1165-X WT; His6 (N); made in house; host or cells: E. coli (PTP1B co-expressed)
T8 sequence (P17948 with tags, fused parts or gaps): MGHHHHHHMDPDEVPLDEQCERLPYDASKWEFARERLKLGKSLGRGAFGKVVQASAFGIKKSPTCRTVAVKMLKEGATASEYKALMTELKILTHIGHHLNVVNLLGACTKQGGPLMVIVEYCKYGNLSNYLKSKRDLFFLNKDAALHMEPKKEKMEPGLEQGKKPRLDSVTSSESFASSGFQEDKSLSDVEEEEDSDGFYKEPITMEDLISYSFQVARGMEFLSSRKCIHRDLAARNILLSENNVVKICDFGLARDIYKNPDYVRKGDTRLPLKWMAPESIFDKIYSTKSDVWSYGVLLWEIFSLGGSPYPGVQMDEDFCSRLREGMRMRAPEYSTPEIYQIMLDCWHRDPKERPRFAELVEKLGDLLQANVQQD
As to the kind of experiment: AlphaScreen kinase assay, Flt1. As to conditions: read-out: IC50, activity toward kinase Flt1.

For assay [10], the target named is T9, Fms (Homo sapiens, UniProt P07333).
T9 construct: purchased Upstate Biotechnology
T9 sequence (P07333 20-972): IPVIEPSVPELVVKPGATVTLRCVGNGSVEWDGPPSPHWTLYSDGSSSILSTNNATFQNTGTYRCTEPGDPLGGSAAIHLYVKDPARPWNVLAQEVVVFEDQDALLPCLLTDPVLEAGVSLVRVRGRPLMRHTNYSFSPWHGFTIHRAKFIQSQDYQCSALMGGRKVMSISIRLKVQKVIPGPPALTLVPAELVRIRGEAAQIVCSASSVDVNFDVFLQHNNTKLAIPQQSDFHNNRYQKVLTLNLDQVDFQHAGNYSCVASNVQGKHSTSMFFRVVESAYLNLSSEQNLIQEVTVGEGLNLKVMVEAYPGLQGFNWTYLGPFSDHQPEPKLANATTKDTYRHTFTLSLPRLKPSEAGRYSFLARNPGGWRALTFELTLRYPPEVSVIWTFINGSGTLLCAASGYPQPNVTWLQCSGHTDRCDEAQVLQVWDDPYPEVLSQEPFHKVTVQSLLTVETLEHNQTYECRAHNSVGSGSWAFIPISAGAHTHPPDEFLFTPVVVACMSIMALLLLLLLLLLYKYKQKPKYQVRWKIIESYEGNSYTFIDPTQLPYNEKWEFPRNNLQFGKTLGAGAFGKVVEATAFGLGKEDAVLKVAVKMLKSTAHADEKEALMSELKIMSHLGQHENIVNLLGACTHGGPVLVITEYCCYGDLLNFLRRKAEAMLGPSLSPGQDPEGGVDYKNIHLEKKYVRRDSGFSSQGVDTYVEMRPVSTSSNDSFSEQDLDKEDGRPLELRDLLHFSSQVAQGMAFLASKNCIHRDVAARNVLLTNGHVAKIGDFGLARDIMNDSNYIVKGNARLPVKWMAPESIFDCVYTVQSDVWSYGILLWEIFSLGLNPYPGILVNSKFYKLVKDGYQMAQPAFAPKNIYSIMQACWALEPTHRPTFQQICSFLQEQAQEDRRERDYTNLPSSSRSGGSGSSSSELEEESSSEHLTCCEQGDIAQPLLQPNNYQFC
As to the kind of experiment: AlphaScreen kinase assay, Fms. Particulars: read-out: IC50, activity toward kinase Fms.

The target in assay [11] is T10, B-Raf V600E (Homo sapiens, UniProt P15056, V600E).
T10 construct: P4254. pFastBacBD-CDC37 BRAF D437-K722-X, V600E; His6 with pFastBac HT leader (TEV site) (N); made in house; host or cells: Sf9 (baculovirus; chaperone CDC37 co-expressed)
T10 sequence (P15056 with tags, fused parts or gaps V600E): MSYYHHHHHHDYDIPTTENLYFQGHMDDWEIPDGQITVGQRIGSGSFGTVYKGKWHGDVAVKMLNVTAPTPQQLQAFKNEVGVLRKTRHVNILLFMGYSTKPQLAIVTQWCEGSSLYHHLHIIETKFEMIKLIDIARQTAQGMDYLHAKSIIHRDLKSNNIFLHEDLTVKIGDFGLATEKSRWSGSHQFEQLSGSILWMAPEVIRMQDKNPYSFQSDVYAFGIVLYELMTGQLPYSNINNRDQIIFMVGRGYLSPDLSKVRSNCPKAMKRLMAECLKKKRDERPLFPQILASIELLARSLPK
Put plainly: AlphaScreen kinase assay, B-Raf V600E. As to conditions: read-out: IC50, activity toward kinase B-Raf V600E.

Chain of MAP4K4 (O95819 whole entry): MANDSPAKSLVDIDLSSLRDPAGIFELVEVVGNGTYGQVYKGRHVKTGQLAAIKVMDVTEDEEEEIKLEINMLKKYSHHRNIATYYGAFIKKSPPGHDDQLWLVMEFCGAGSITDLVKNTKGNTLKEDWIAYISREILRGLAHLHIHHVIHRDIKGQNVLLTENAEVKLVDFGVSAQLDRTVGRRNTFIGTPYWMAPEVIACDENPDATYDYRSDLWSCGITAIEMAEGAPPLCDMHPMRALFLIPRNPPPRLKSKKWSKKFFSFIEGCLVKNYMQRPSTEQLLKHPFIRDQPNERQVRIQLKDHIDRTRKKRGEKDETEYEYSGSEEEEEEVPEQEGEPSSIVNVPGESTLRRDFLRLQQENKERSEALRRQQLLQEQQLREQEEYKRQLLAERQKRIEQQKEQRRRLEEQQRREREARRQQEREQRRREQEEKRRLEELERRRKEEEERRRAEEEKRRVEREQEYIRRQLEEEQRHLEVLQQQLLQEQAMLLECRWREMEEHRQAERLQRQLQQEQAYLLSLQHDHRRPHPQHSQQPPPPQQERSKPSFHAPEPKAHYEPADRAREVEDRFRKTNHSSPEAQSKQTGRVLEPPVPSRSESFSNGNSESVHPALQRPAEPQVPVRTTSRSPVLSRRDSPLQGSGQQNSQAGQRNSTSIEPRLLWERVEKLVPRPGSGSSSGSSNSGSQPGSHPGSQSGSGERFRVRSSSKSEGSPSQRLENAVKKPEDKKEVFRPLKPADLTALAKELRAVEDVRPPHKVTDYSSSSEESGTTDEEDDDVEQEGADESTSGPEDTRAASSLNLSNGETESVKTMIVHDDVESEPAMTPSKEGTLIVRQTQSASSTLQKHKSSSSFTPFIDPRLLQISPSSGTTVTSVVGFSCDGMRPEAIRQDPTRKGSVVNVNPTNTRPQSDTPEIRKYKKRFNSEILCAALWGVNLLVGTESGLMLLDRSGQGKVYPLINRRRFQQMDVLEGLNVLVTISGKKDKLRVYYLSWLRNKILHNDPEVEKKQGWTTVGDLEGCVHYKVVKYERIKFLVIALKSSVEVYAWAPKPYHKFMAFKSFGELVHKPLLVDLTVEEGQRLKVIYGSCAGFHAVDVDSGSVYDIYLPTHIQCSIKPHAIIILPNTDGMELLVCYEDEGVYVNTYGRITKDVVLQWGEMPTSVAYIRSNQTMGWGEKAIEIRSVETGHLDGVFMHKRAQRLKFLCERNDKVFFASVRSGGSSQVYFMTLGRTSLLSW
T5 sequence (P07947 whole entry): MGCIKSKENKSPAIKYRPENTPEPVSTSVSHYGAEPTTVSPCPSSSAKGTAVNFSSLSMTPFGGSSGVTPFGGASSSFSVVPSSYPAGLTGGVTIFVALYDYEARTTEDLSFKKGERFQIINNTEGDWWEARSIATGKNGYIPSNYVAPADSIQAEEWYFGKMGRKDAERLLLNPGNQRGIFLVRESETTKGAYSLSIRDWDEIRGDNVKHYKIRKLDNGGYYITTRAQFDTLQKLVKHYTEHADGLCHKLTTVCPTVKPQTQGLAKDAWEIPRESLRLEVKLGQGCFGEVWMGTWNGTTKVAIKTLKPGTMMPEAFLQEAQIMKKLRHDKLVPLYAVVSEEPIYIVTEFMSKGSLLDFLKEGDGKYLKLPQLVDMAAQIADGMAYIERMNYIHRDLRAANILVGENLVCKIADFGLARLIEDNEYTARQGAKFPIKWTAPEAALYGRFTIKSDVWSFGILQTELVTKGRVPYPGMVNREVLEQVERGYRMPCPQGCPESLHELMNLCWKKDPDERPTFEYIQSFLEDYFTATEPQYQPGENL

Consider `Fc1ccc(Cc2c[nH]c3ncccc23)cc1` [Compound P-0220], for which the IC50 in assay [1] and in assay [2] was no more than 10 µM in each case.

As to `c1ccc(Cc2c[nH]c3ncccc23)cc1` [Compound P-0256], the IC50 in assay [1] was no more than 10 µM.

As for `c1ccc(Oc2ccc(Cc3c[nH]c4ncccc34)cc2)cc1` [Compound P-0310], the concentration for half-maximal inhibition (IC50) in [3], in assay [4], in assay [5] and in assay [6] was no more than 10 µM throughout.

In the case of `Cc1cc(C(=O)c2c[nH]c3ncccc23)n(C)n1` [Compound P-0357], the IC50 in [1] was no more than 10 µM.

With `O=C(c1cccc(F)c1)c1c[nH]c2ncccc12` [Compound P-0367], the IC50 in [1], in assay [7] and in assay [8] was no more than 10 µM each time.

As for `O=C(c1ccccc1)c1c[nH]c2ncccc12` [Compound P-0402], the IC50 in assay [1] and in [7] was no more than 10 µM each time.

As for `Clc1cccc(-c2c[nH]c3ncccc23)c1` [Compound P-0449], the IC50 in [1] is no more than 10 µM.

Turning to `COc1ccc(-c2c[nH]c3ncccc23)c(OC)c1` [Compound P-0477], the IC50 in assay [1] and in assay [9] was no more than 10 µM in each case.

As for `Cc1[nH]c2ncccc2c1-c1ccccc1` [Compound P-0488], the IC50 in assay [1] is no more than 10 µM.

Turning to `O=C(c1cccnc1)c1c[nH]c2ncccc12` [Compound P-0518], the IC50 in assay [1] was no more than 10 µM.

Turning to `CCOc1ccccc1-c1c[nH]c2ncccc12` [Compound P-0527], the half-maximal inhibitory concentration (IC50) in assay [1] is no more than 10 µM.

In the case of `Cc1[nH]c2ncccc2c1-c1ccncc1` [Compound P-0537], the IC50 in assay [1] is no more than 10 µM.

For the compound `Cc1[nH]c2ncccc2c1-c1ccc(-c2ccccc2)cc1` [Compound P-0601], in assay [1], the IC50 is no more than 10 µM.

`NC(=O)c1ccc(-c2c(CN3CCOCC3)[nH]c3ncccc23)cc1` [Compound P-0695]: the IC50 in [1] is no more than 10 µM.

For `COc1ccc(-c2c(C)[nH]c3ncccc23)cc1OC` [Compound P-0862], in [1], the IC50 is no more than 10 µM.

Turning to `c1cnc2ccc(Nc3ccnc4[nH]ccc34)cc2c1` [Compound P-1042], in assay [1], the IC50 was no more than 10 µM.

On to `COc1cc(OC)cc(C(=O)c2c[nH]c3ncc(-c4ccccc4)cc23)c1` [Compound P-1406, (3,5-Dimethoxy-phenyl)-(5-phenyl-1H-pyrrolo[2.3 b]pyridin-3-yl)-methanone], for which the half-maximal inhibitory concentration (IC50) in assay [1], in assay [7], in [9], in assay [2] and in assay [10] was no more than 10 µM each time.

`O=C(c1cc(Cl)cc(Cl)c1)c1c[nH]c2ncc(-c3cccnc3)cc12` [Compound P-1414, (3,5-Dichloro-phenyl)-(5-pyridin-3-yl-1H-pyrrolo[2,3-b]pyridin-3-yl)-methanone]: the IC50 in [1], in assay [7] and in [11] was no more than 10 µM in each case.

Turning to `O=C(c1cccc(OC(F)F)c1)c1c[nH]c2ncc(-c3cccnc3)cc12` [Compound P-1415, (3-Difluoromethoxy-phenyl)-(5-pyridin-3-yl-1H-pyrrolo[2,3-b]pyridin-3-yl)-methanone], the IC50 in assay [1], in [7], in assay [9], in assay [11], in [2] and in assay [10] was no more than 10 µM each time.

In the case of `O=C(O)/C=C/c1cccc(-c2cnc3[nH]cc(C(=O)c4cccc(OC(F)F)c4)c3c2)c1` [Compound P-1418, (E)-3-{3-[3-(3-Difluoromethoxy-benzoyl)-1H-pyrrolo[2,3-b]pyridin-5-yl]-phenyl}-acrylic acid], the IC50 in [1], in assay [9], in assay [11] and in assay [2] was no more than 10 µM in each case.

Turning to `CS(=O)(=O)Nc1cccc(-c2cnc3[nH]cc(C(=O)c4cc(Cl)cc(Cl)c4)c3c2)c1` [Compound P-1429, N-{3-[3-(3,5-Dichloro-benzoyl)-1H-pyrrolo[2,3-b]pyridin-5-yl]-phenyl}-methanesulfonamide], the IC50 in [3], in assay [1], in assay [7], in [9], in [11] and in assay [2] was no more than 10 µM each time. The half-maximal inhibitory concentration (IC50) in assay [10] is no more than 10 µM.
